# Measurements: PMC9112550, “Optimization of the antimicrobial peptide Bac7 by deep mutational scanning” (BMC Biology, 2022)
# System: E. coli TOP10
# Assay: Single-strain growth experiments, intracellular peptide expression
# Type: cell-based
# Conditions: negative control, expressed in E. coli TOP10
# Experimental: To assess the antimicrobial activity of single peptides when expressed intracellularly in E. coli TOP10, a monoclonal strain carrying the pBAD plasmid containing a single peptide gene was picked from solid media, incubated overnight, and inoculated into a fresh LB medium containing 0.3% (w/v) L-arabinose to a final OD of 0.01 into 96-well microtiter plate (Greiner). Growth of strains was recorded by measuring OD in a Tecan Infinite 200 PRO (Tecan, Männedorf, CH) for at least 4 h (37°C, 1.5 mm orbital shaking).
substance,measurement,value
HNP-1: inactive peptide HNP-1 expressed as the negative control,activity on intracellular expression,inactive
